Reference: patent publication US10703764B2, “Benzopiperazine compositions as BET bromodomain inhibitors” (FORMA Therapeutics, Inc., priority 2013, dated 2020)

How the values were obtained:
[1] = target: T1, BRD4 BD1 (Homo sapiens, UniProt O60885); experiment: AlphaScreen binding assay, BRD4 Bromodomain 1
T1 construct: made in house
Outline: (§1)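 An AlphaScreen competition format was used with His-BRD4 BD1 or BD2 and biotin-H4 K5/8/12/16-acetyl peptide, each at matched final levels of 50 nM (BD1) or 100 nM (BD2). Incubation in HEPES/NaCl buffer with 0.1% BSA and 0.01% Triton X-100 ran ≥1 h before IC50 determination.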

[2] = target: T2, BRD4 BD2 (Homo sapiens, UniProt O60885); experiment: AlphaScreen binding assay, BRD4 Bromodomain 2
T2 construct: made in house
Outline: as §1

IC50 [1] | IC50 [2] | Structure (SMILES)
> 10000 nM | > 500 nM | CC(=O)N1c2ccccc2N(S(=O)(=O)c2cccc(C(F)(F)F)c2)C[C@@H]1C [Example I-947]
> 10000 nM | > 500 nM | CC(=O)N1c2ccccc2N(S(=O)(=O)c2cccc(C)c2)C[C@@H]1C [Example I-948]
> 10000 nM | > 500 nM | CC(=O)N1c2ccccc2N(S(=O)(=O)c2ccc(C)cc2C)C[C@@H]1C [Example I-949]
> 10000 nM | > 500 nM | COc1ccc(S(=O)(=O)N2C[C@H](C)N(C(C)=O)c3ccccc32)c(OC)c1 [Example I-950]
> 10000 nM | > 500 nM | CC(=O)N1c2ccccc2N(S(=O)(=O)c2ccc(C(F)(F)F)nc2)C[C@@H]1C [Example I-951]
> 10000 nM | > 500 nM | CC(=O)N1c2ccccc2N(S(=O)(=O)C2CC2)C[C@@H]1C [Example I-952]
> 10000 nM | > 500 nM | CC(=O)N1c2ccccc2N(S(=O)(=O)Cc2ccccc2Cl)C[C@@H]1C [Example I-953]
> 10000 nM | > 500 nM | CC(=O)N1c2ccccc2N(S(=O)(=O)Cc2ccccc2)C[C@@H]1C [Example I-954]
> 10000 nM | > 500 nM | CC(=O)N1c2ccccc2N(S(=O)(=O)Cc2cccc(Cl)c2)C[C@@H]1C [Example I-955]
> 10000 nM | > 500 nM | CC(=O)N1c2ccccc2N(S(=O)(=O)c2cn(C)c(C)n2)C[C@@H]1C [Example I-956]
> 10000 nM | > 500 nM | CC(=O)c1ccc(S(=O)(=O)N2C[C@H](C)N(C(C)=O)c3ccccc32)cc1 [Example I-957]
> 10000 nM | > 500 nM | CC(=O)N1c2ccccc2N(S(=O)(=O)Cc2cccc(C#N)c2)C[C@@H]1C [Example I-958]
> 10000 nM | > 500 nM | COc1cc(Cl)ccc1S(=O)(=O)N1C[C@H](C)N(C(C)=O)c2ccccc21 [Example I-959]
> 10000 nM | > 500 nM | COc1ccc(S(=O)(=O)N2C[C@H](C)N(C(C)=O)c3ccccc32)c(C)c1 [Example I-960]
> 10000 nM | > 500 nM | CC(=O)N1c2ccccc2N(S(=O)(=O)c2cn(C)cn2)C[C@@H]1C [Example I-961]
> 10000 nM | > 500 nM | CC(=O)N1c2ccccc2N(S(=O)(=O)Cc2ccc(Cl)cc2)C[C@@H]1C [Example I-962]
> 10000 nM | > 500 nM | CC(=O)N1c2ccccc2N(S(=O)(=O)Cc2ccc(C#N)cc2)C[C@@H]1C [Example I-963]
1000 to 10000 nM | 50 to 500 nM | CC(=O)N1c2ccc(-c3ccc(S(C)(=O)=O)cc3)cc2N(C(=O)Nc2ccccc2)C[C@@H]1C [Example I-964]
> 10000 nM | > 500 nM | CCNC(=O)N1C[C@H](C)N(C(C)=O)c2ccc(-c3ccc(S(C)(=O)=O)cc3)cc21 [Example I-965]
> 10000 nM | > 500 nM | CC(=O)N1c2ccc(-c3ccc(S(C)(=O)=O)cc3)cc2N(C(=O)Nc2ccccc2C)C[C@@H]1C [Example I-966]
> 10000 nM | 50 to 500 nM | COc1cccc(NC(=O)N2C[C@H](C)N(C(C)=O)c3ccc(-c4ccc(S(C)(=O)=O)cc4)cc32)c1 [Example I-967]
1000 to 10000 nM | 50 to 500 nM | CC(=O)N1c2ccc(-c3ccc(S(C)(=O)=O)cc3)cc2N(C(=O)NC2CCCC2)C[C@@H]1C [Example I-968]
> 10000 nM | > 500 nM | CC(=O)N1c2ccc(-c3ccc(S(C)(=O)=O)cc3)cc2N(C(=O)Nc2cccc(Cl)c2)C[C@@H]1C [Example I-969]
1000 to 10000 nM | 50 to 500 nM | COc1ccccc1NC(=O)N1C[C@H](C)N(C(C)=O)c2ccc(-c3ccc(S(C)(=O)=O)cc3)cc21 [Example I-970]
> 10000 nM | 50 to 500 nM | CC(=O)N1c2ccc(-c3ccc(S(C)(=O)=O)cc3)cc2N(C(=O)Nc2cccc(C)c2)C[C@@H]1C [Example I-971]
> 10000 nM | > 500 nM | COc1ccccc1CNC(=O)N1C[C@H](C)N(C(C)=O)c2ccc(-c3ccc(S(C)(=O)=O)cc3)cc21 [Example I-972]
1000 to 10000 nM | 50 to 500 nM | CC(=O)N1c2ccc(-c3ccc(S(C)(=O)=O)cc3)cc2N(C(=O)Nc2ccccc2Cl)C[C@@H]1C [Example I-973]
1000 to 10000 nM | 50 to 500 nM | CC(=O)N1c2ccc(-c3ccc(S(C)(=O)=O)cc3)cc2N(C(=O)Nc2ccc(C)cc2)C[C@@H]1C [Example I-974]
> 10000 nM | > 500 nM | CC(=O)N1c2ccc(-c3ccc(S(C)(=O)=O)cc3)cc2N(C(=O)Nc2ccc(Cl)cc2)C[C@@H]1C [Example I-975]
> 10000 nM | > 500 nM | CC(=O)N1c2ccc(-c3ccc(S(C)(=O)=O)cc3)cc2N(C(=O)NCc2ccc(C)cc2)C[C@@H]1C [Example I-976]
